Experimental data as given in ChEMBL document CHEMBL1201862, “PubChem BioAssay data set” (2004).
Calls of active or inactive are those of the source.

Tests used:
[1] = biological target: FAD-linked sulfhydryl oxidase ALR (Homo sapiens, UniProt P55789); test: ALR-catalysed DTT oxidation blockers – biochemical, H2O2 detection, luminescence, cherry-pick, dose response (AID 493248)
[2] = biological target: T1, Alkaline phosphatase, tissue-nonspecific isozyme (Homo sapiens, UniProt P05186); test: inhibition of tissue-nonspecific alkaline phosphatase – biochemical, dose response (AID 488882); assay type: functional
T1 sequence (P05186 whole entry): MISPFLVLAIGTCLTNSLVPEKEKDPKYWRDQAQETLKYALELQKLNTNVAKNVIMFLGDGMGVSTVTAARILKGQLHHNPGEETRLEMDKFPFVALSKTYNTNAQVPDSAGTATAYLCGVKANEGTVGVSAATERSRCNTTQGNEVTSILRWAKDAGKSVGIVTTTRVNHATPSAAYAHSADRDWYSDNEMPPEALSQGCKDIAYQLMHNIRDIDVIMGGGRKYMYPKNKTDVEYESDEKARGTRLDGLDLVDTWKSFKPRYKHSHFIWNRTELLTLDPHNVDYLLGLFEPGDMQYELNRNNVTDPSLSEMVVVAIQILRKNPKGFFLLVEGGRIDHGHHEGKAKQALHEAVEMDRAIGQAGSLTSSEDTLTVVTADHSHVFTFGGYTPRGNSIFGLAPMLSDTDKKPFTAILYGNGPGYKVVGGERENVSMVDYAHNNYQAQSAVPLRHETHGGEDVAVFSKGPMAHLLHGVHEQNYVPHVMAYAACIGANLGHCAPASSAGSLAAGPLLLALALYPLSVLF

Vero = test: viability of Vero cells under compound – cytotoxicity control for flavivirus capping enzyme inhibitors (AID 588742); assay type: functional; conditions: Chlorocebus sabaeus
[3] = biological target: T2, Intestinal-type alkaline phosphatase (Homo sapiens, UniProt P09923); test: Dose Response confirmation of uHTS hits from a small molecule inhibitors of human intestinal alkaline phosphatase via a luminescent assay. [Related pubchem assays (depositor defined):AID2544, AID2574]; assay type: functional
Large T antigen = Large T antigen (Simian virus 40, UniProt P03070); assay type: functional, Betapolyomavirus macacae;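 further: Confirmatory-stage PubChem screen for compounds that inhibit SV40 T antigen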
[4] = biological target: T3, Histone-lysine N-methyltransferase NSD2 (Homo sapiens, UniProt O96028); assay type: biochemical
T3 sequence (O96028 whole entry): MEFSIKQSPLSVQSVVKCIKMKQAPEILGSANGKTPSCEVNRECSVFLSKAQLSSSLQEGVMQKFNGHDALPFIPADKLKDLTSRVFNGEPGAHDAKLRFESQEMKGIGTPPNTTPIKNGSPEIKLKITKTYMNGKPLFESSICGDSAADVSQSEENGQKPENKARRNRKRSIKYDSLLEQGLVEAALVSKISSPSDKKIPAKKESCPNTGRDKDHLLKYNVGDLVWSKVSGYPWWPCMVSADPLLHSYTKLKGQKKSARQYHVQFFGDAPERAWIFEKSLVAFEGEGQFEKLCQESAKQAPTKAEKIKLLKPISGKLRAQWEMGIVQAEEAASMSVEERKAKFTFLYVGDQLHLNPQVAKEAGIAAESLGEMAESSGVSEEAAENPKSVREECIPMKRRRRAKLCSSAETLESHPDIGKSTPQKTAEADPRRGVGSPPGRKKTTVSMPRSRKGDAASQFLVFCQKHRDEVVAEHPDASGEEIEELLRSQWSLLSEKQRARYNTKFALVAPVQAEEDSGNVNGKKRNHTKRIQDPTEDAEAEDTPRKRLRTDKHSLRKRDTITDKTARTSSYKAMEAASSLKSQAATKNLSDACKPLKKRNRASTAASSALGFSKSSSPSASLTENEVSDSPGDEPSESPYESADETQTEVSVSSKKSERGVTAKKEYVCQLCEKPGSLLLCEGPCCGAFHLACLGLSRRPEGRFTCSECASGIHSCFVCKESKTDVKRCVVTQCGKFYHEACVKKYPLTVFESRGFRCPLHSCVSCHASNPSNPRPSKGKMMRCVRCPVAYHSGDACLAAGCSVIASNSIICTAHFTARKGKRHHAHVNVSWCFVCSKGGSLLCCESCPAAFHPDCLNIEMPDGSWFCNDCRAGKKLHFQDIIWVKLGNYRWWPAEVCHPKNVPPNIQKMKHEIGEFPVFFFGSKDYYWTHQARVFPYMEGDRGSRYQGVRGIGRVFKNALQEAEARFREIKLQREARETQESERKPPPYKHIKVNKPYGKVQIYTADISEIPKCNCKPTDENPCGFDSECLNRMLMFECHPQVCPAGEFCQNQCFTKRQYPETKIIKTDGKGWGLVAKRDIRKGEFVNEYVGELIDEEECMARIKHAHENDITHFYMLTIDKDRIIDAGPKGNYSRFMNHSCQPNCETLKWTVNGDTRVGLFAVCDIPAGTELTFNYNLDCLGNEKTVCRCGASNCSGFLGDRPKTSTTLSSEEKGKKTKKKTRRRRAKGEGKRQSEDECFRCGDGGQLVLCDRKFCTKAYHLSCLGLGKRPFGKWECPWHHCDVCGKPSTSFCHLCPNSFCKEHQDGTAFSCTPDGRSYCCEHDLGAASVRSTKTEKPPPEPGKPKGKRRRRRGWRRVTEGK

Caspase-6 = biological target: T4, Caspase-6 (Homo sapiens, UniProt P55212); test: inhibition of CASP6 peptide cleavage – biochemical, VEID-R110 fluorescence, cherry-pick, dose response (AID 720632)
T4 sequence (P55212 whole entry): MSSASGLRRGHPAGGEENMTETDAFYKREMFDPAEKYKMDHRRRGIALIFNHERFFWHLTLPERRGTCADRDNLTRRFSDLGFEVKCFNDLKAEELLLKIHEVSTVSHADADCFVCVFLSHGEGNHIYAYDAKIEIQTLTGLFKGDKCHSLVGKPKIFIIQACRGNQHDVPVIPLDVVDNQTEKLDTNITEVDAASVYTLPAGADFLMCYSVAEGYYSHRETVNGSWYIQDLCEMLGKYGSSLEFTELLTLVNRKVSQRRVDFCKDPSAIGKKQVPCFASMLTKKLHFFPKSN

Albumin = Albumin (Bos taurus, UniProt P02769); test: Counterscreen for inhibitors of T-cell receptor (TCR)-CD3 interaction: Fluorescence-based biochemical high throughput dose response assay to identify inhibitors of T-cell receptor (TCR)-CD3 interaction using a TAMRA-labeled BSA probe.; assay type: functional
[5] = viability of uninfected HEp-2 cells – cell-based, HTS, cytotoxicity control for RSV inhibitor project, dose response (AID 2410); assay type: functional; conditions: human respiratory syncytial virus
[6] = biological target: Intestinal-type alkaline phosphatase (Mus musculus, UniProt P24822); test: PubChem AID 488874; assay type: functional
[7] = biological target: T2, Intestinal-type alkaline phosphatase; test: inhibition of human intestinal alkaline phosphatase – biochemical, luminescent, uHTS hits, set 2, dose response (AID 488793); assay type: functional
Insulin-degrading enzyme [8] = biological target: T5, Insulin-degrading enzyme (Homo sapiens, UniProt P14735); test: recombinant IDE activation, cell-free – biochemical, fluorescence polarization, counter-screen for IDE activator project, dose response (AID 588681)
T5 sequence (P14735 whole entry): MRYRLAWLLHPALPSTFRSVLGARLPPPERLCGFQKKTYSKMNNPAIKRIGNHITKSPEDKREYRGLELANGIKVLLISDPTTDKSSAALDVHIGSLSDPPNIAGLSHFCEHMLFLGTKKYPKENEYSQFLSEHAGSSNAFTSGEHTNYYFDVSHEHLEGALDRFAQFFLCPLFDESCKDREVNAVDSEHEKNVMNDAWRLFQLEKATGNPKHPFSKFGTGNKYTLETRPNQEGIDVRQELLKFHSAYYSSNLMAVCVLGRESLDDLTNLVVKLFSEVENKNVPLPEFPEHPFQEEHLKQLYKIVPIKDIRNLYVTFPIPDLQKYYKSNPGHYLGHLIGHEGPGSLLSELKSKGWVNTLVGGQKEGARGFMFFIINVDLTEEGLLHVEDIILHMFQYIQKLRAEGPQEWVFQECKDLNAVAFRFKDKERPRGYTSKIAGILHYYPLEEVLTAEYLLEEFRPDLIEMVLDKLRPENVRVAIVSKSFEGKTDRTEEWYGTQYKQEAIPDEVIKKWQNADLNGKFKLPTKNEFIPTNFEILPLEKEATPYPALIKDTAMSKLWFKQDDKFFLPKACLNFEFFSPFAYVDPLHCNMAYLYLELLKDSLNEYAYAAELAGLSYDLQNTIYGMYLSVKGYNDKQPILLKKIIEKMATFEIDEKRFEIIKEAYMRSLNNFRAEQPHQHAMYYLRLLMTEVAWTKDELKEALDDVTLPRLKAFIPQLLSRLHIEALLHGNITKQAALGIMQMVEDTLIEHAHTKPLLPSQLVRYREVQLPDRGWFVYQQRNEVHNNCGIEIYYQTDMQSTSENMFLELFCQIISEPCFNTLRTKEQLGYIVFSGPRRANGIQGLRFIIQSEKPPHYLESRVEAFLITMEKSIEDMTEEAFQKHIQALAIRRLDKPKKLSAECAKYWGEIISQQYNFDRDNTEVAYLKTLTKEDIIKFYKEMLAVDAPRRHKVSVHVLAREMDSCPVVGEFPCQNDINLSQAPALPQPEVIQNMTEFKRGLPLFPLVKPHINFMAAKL

HEK293 [9] = test: optical interference in Abeta FP readout, dose response, artefact control for IDE activator project, biochemical, fluorescence polarization (AID 588442); assay type: functional, cell-based; conditions: Homo sapiens
[10] = biological target: UDP-galactopyranose mutase (Mycobacterium tuberculosis, UniProt P9WIQ1); test: Inhibitors of Mycobacterium tuberculosis UDP-galactopyranose mutase (UGM) enzyme Measured in Biochemical System Using Plate Reader - 2105-02_Inhibitor_Dose_CherryPick_Activity. [Related pubchem assays (depositor defined):AID504439]
ORF 73 = ORF 73 (Human herpesvirus 8, UniProt O40947); test: KSHV LANA DNA-binding disruption – biochemical, fluorescence polarization, cherry-picked samples, dose response (AID 504725); design: species or system Human gammaherpesvirus 8;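 further: fluorescence polarization of a labeled DNA duplex reporting LANA DNA binding; potency is for inhibitors that block LANA binding to the DNA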
Keap1/Nrf2 = Keap1/Nrf2 (Homo sapiens, UniProt Q14145); test: disruptors of Keap1 binding to Nrf2 peptide – biochemical, fluorescence polarization, cherry-picked samples, dose response (AID 588683)
CHO = CHO cell viability loss, potency – luminescence, cytotoxicity control for TLR9-MyD88 binding inhibitor project, dose response (AID 588339); assay type: functional, cell-based, hamster; conditions: Cricetulus griseus;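 further: CHO cells stably coexpressing TLR9 and MyD88 fusions from primary screen; compound exposure lasted 48 hours before viability readout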
Insulin-degrading enzyme [11] = biological target: T5, Insulin-degrading enzyme; test: cellular IDE activation of Abeta substrate cleavage – fluorescence polarization, HEK cells, dose response (AID 588439); assay type: functional, cell-based
HEK293 [12] = test: membrane integrity loss in HEK cells – cell-based, fluorescence, cytotoxicity control for IDE activator project, dose response (AID 588440); assay type: functional; conditions: Homo sapiens;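 further: cytotoxicity by LDH release measuring loss of membrane integrity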
Beta Lactamase = Beta Lactamase (Pseudomonas aeruginosa, UniProt Q932Y6); test: BLA reporter interference, concentration series – BLA reporter cells, FRET fluorescence, artefact control for TLR9-MyD88 binding inhibitor project, dose response (AID 588341); assay type: cell-based;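 further: cell based assay in CHO-K1 cells stably expressing beta-lactamase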
[13] = biological target: T6, Dual specificity protein phosphatase 3 (Homo sapiens, UniProt P51452); test: SAR VHR1 Fluorescent Assay for In Vitro dose response studies. [Related pubchem assays (depositor defined):AID1654, AID1661, AID1878, AID1992, AID2004, AID2070, AID2085]; assay type: functional
[14] = biological target: T7, Polyadenylate-binding protein 1 (Homo sapiens, UniProt P11940); test: MLLE binding blockers, Cy5 peptide tracer – biochemical, fluorescence polarization, Cy5-PAM2 peptide, secondary, miRNA deadenylation inhibitor project, dose response (AID 602260); assay type: functional; conditions: read-out: IC50_Mean
[15] = biological target: T8, Tyrosine-protein phosphatase non-receptor type 7 (Homo sapiens, UniProt P35236); test: redox-active compounds inhibiting HePTP phosphatase – biochemical, fluorescence, mechanism study (AID 2068); assay type: functional
T8 sequence (P35236 whole entry): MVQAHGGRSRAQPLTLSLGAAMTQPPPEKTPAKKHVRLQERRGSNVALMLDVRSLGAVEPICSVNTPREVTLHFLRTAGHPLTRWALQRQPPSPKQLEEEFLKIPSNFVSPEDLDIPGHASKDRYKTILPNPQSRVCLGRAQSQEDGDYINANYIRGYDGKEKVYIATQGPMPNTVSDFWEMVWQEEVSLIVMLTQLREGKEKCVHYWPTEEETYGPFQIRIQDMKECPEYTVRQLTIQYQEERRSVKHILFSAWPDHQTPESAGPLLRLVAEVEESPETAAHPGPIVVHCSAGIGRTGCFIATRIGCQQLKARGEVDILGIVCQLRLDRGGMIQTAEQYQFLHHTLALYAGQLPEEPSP

[16] = biological target: Dual specificity protein phosphatase 6 (Rattus norvegicus, UniProt Q64346); assay type: functional;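 further: confirmatory in vitro dose-response testing of MKP-3 inhibition; recombinant His-tagged MKP-3 made in E. coli BL21 with OMFP substrate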
[17] = biological target: T6, Dual specificity protein phosphatase 3; test: MOA VHR1 Fluorescent secondary assay for identification of redox-state modulating compounds. [Related pubchem assays (depositor defined):AID1654, AID1661, AID1878, AID1957]
[18] = biological target: T6, Dual specificity protein phosphatase 3; test: SAR VHR1 absorbance Assay for In Vitro dose response studies. [Related pubchem assays (depositor defined):AID1654, AID1661, AID1878, AID1992, AID2004]
[19] = biological target: T7, Polyadenylate-binding protein 1; test: MLLE domain peptide-binding blockers, IC50 – biochemical, fluorescence polarization, FITC-PAM2 peptide, dose response (AID 602259); assay type: functional; conditions: read-out: IC50_Mean

T6 sequence (P51452 whole entry): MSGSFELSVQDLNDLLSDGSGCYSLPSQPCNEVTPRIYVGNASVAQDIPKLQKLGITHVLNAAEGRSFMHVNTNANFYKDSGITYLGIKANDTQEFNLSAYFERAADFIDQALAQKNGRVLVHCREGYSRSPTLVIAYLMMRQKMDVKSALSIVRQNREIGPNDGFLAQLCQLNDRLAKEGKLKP
T7 sequence (P11940 whole entry): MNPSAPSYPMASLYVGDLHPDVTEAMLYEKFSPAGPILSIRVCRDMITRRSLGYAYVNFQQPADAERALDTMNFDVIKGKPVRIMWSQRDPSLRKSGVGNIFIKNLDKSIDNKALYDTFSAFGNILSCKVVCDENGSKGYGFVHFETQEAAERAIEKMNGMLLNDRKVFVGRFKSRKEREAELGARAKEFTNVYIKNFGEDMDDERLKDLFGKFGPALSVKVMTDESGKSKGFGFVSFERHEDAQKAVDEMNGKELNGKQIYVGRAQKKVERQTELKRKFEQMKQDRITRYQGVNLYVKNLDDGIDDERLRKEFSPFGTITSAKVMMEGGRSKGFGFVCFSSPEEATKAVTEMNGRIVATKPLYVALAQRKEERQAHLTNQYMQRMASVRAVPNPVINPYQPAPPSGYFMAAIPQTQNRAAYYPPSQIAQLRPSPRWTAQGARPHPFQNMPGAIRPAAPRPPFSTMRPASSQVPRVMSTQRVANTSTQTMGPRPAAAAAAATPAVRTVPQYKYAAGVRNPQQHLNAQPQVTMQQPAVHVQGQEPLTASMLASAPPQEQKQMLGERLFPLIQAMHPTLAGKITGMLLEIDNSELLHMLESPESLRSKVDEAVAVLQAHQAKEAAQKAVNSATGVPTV
T2 sequence (P09923 whole entry): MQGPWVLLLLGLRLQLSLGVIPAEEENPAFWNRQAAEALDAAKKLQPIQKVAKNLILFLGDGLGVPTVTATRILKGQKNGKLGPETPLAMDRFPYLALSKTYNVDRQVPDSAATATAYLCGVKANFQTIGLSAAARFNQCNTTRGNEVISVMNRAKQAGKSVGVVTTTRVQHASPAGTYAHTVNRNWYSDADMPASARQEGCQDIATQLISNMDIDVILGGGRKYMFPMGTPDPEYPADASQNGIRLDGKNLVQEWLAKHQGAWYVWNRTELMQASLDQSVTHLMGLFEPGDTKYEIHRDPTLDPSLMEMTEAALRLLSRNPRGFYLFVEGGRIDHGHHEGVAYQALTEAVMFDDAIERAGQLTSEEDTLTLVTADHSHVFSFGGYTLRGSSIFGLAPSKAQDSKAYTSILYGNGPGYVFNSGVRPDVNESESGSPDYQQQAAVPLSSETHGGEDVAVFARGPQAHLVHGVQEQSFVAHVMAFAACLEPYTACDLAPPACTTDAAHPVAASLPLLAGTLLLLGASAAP
ORF 73, sequence (O40947 whole entry): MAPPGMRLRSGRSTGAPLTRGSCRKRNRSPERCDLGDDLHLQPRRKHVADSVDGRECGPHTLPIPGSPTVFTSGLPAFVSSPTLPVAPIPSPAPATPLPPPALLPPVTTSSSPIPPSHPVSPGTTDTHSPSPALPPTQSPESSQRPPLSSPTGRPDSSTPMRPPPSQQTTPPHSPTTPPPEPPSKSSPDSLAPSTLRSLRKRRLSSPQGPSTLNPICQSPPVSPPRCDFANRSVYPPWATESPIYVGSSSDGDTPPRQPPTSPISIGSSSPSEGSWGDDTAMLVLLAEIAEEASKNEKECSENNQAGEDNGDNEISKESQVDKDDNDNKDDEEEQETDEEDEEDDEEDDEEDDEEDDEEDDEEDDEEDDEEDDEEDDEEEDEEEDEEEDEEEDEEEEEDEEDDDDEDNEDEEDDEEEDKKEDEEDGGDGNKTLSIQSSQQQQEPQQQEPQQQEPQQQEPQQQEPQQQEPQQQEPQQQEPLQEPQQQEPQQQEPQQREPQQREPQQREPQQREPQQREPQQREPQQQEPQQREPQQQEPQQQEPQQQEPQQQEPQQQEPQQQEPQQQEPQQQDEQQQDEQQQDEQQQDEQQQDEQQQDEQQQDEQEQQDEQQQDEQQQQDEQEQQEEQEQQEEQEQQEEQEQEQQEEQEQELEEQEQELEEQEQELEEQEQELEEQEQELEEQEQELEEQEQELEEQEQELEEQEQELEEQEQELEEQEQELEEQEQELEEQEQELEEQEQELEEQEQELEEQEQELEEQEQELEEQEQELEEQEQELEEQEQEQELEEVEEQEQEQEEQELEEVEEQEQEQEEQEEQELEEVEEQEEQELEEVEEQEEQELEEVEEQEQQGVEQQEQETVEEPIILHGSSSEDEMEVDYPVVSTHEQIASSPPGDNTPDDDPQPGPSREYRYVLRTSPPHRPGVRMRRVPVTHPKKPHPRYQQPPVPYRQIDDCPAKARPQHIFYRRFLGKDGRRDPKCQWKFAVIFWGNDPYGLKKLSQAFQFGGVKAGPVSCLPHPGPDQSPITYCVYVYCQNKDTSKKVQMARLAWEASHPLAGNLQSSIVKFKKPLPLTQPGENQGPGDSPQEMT
FAD-linked sulfhydryl oxidase ALR, sequence (P55789 whole entry): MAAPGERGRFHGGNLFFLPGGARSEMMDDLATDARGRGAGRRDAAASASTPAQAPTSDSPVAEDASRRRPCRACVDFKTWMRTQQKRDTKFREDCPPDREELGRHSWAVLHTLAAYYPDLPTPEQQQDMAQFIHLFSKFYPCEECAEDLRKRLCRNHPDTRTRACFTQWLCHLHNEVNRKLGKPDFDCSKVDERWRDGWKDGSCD
UDP-galactopyranose mutase, sequence (P9WIQ1 whole entry): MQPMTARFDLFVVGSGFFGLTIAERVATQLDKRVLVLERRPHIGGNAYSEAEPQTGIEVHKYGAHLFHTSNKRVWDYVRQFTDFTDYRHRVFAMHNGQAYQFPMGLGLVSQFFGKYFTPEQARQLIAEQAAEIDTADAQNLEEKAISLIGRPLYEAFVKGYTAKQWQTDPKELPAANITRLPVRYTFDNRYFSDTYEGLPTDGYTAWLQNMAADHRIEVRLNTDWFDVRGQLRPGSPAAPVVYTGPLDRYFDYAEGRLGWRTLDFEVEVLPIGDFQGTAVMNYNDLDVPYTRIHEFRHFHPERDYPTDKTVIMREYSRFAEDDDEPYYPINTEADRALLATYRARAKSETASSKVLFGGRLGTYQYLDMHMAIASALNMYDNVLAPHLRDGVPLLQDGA
Large T antigen, sequence (P03070 whole entry): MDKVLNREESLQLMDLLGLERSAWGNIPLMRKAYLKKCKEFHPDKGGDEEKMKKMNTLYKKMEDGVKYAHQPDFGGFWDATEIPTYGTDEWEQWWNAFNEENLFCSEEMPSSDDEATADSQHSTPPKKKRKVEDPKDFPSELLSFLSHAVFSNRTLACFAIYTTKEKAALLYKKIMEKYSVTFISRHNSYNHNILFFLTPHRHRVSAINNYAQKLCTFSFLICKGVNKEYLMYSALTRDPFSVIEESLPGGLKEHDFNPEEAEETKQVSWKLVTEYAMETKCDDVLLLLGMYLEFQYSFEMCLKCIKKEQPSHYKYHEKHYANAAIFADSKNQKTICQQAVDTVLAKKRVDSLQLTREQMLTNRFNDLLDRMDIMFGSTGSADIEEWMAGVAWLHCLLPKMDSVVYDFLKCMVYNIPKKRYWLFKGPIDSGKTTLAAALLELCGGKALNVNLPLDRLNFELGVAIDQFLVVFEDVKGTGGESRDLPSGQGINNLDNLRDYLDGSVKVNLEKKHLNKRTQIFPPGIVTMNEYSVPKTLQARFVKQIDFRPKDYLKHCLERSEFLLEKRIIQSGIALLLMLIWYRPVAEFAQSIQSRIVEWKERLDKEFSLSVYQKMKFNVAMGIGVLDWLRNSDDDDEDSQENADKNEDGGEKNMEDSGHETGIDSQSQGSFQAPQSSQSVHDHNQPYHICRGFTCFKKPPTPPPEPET
Beta Lactamase, sequence (Q932Y6 whole entry): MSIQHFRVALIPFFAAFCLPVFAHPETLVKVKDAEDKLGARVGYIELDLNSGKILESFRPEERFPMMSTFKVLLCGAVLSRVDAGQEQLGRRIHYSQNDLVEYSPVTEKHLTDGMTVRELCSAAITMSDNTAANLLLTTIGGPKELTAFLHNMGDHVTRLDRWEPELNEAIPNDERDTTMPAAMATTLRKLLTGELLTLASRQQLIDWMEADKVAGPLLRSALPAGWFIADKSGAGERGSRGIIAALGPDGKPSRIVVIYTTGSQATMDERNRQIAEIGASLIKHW
Intestinal-type alkaline phosphatase (Mus musculus, UniProt P24822), sequence (P24822 whole entry): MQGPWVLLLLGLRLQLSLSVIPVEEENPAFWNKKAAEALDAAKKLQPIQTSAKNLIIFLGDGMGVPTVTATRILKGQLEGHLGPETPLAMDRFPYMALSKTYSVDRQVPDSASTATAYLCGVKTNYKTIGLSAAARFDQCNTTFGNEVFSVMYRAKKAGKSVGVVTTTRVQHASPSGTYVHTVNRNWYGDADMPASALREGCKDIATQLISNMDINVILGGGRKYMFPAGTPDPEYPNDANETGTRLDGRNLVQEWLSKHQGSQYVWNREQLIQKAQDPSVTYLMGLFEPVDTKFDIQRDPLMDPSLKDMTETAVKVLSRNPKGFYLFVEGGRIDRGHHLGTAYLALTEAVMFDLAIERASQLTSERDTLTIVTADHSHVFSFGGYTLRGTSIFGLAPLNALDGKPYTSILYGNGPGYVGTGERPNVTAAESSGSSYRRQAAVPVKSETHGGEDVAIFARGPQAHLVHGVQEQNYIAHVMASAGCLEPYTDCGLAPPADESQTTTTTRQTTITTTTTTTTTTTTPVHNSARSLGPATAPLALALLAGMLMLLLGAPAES
Dual specificity protein phosphatase 6, sequence (Q64346 whole entry): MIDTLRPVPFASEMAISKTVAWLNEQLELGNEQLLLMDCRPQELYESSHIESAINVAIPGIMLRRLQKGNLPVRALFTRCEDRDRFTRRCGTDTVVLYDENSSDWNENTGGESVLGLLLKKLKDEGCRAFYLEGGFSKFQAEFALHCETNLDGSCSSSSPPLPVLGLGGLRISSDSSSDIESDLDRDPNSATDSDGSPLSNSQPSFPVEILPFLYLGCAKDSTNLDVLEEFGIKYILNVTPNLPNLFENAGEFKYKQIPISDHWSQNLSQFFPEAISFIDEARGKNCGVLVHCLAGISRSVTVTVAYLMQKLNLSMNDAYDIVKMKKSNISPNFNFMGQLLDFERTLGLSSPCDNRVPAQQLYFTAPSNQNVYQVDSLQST

Structure (SMILES): O=C1Nc2ccccc2/C1=N/N=C/c1ccc(O)c(O)c1
- AC50 [1]: 0.83 µM (active)
- IC50 [2]: 3.29 µM (active)
- CC50 (Vero): > 40 µM (active)
- IC50 [3]: 7.95 µM (active)
- IC50 (Large T antigen): 3.29 µM (active)
- AC50 [4]: 0.407 µM (active)
- AC50 (Caspase-6): 0.226 µM (active)
- IC50 (Albumin): > 94.1 µM (inactive)
- CC50 [5]: 22.4 µM (active)
- IC50 [6]: 4.79 µM (active)
- IC50 [7]: 7.63 µM (active)

Structure (SMILES): CC(C)CCN1C(=O)c2cccc3c(N)ccc(c23)C1=O
- EC50 (Insulin-degrading enzyme [8]): > 54.7 µM (inactive)
- EC50 (HEK293 [9]): 13.2 µM (inactive)
- AC50 [10]: 2.84 µM (active)
- AC50 (ORF 73): 5.98 µM (active)
- AC50 (Keap1/Nrf2): 1.71 µM (active)
- IC50 (CHO): > 49.8 µM (inactive)
- EC50 (Insulin-degrading enzyme [11]): > 54.7 µM (inactive)
- IC50 (HEK293 [12]): > 89.3 µM (inactive)
- IC50 (Beta Lactamase): 4.77 µM (active)

Structure (SMILES): COc1cc(C(=S)N2CCC(C)CC2)ccc1O
- IC50 [13]: 30.4 µM (active)
- IC50 [14]: > 66 µM (inactive)
- IC50 [15]: 1.61 µM (active)
- IC50 [16]: > 100 µM (inactive)
- IC50 [17]: 1.21 µM (active)
- IC50 [18]: > 100 µM (inactive)
- IC50 [19]: > 66 µM (inactive)
